Data published in patent publication US7985072B2, “Method and apparatus for tooth rejuvenation and hard tissue modification” (Rejuvedent LLC, priority 2005, dated 2011).

Key:
[1] = Example 3: thermal treatment of etched enamel impregnated by sapphire particles (CO2 laser), in vitro; design: species or system human; details: pH=1.5, approximately +50° C., approximately 10 minutes
Description: The authors produced a durable, white colored coating on the enamel surface in an in-vitro experiment as described below. The experiment was conducted on freshly extracted teeth from subjects in the 25-40 age group. The teeth were extracted for periodontal reasons. All specimens had healthy, intact enamel. Prior to the experiment, the specimen were stored for no longer than two weeks in a physiological solution, in a dark place at a temperature of approximately +4° C.
One half of the crown of the tooth was coated with varnish. […] The tooth was exposed to the acid for a period of approximately 10 minutes, which was sufficient for the formation of a porous layer of enamel, approximately 50 μm in thickness on unprotected side of the specimen. […]
Thermocycling test was performed after described treatment The tooth was placed into two alternate water baths, one at +25° C. and the other at +90° C., for a period of 2 seconds into each bath, for a total immersion of 100 cycles. The hardness of the treated and untreated sides was assessed, before and after thermocycling, using a dental probe. The strength of the adhesion of the newly formed layer with sapphire particles to the underlying enamel was also assessed using the tip of the dental probe in an attempt to dislodge the newly formed layer at the border.

[2] = Comparison of edible acids as bleaching agents for removal of stains in enamel; details: low pH (<2.5), intact enamel
Description: The ability of an aqueous acidic solution to deconstruct and dissolve both organic and inorganic components depends on the period of time, pH, concentration, and temperature at which the process occurs. The color of the enamel after stain removal and bleaching is determined by how closely the structure after etching matches the natural structure and how well light is scattered from the surface of the tooth. Remineralization is however, a slow process, so caution in carrying out the procedure is recommended, and it is desirable to protect the new surface with a hard material. To achieve this, the present invention proposes the use of a high concentration of acid to minimize the time of treatment. For a high concentration of acid to be used safely within the oral cavity, two fundamental safety concerns need to be addressed: firstly toxicity and secondly soft tissue damage. To completely eliminate the toxicity problem, especially for home use, we propose the use of an edible acid which is non-toxic when ingested. The volume of acid for any application in the present invention is limited to several cubic centimeters. After dissolution in saliva the concentration of the acid ingested will drop, and the pH will increase, which is typical for foodstuffs. A typical pH for food acids is 2.5 or more. We have studied the effect of a low pH (<2.5) edible acid on intact enamel. […]

[3] = system: gingival tissue; assay: Safe treatment time (STT): onset of discomfort on subjects' gingival tissue; assay type: in vivo, human; design: key to effect of discomfort on gingival tissue: “−” means that the subject experienced no discomfort; “+” means that some discomfort was reported
Description: It was discovered, that a high concentration and low pH acid can work well for exposure times long enough to produce significant changes to hard tissue. The use of high concentration, edible acids for treatment of hard tissues is limited by the action of such acids on soft tissues. […] The typical application time for the desired depth of etching can be from 1-5 minutes for home use, and up for up to 10-20 minutes for professional use. The safe treatment time (STT) is defined as the time during which acid can interact with the soft tissues without damaging them. The STT depends on the acid concentration and the temperature, i.e. STT (pH,T), where pH is the pH of the acid, and T is the temperature of the acid. […] The experiment was conducted on subjects with healthy oral tissues. Prior to treatment, the acid was heated to a control temperature T, using a thermostat, and a small volume (approximately 5×10^−3 ml) of acid was applied to an area of the subject's gingival tissue. The thermo-relaxation time of such a volume is approximately 5-10 seconds. To provide for a relatively constant temperature on the tissue surface, the acid was reapplied at the same temperature T to the same area every 5-10 seconds. This procedure was repeated until the subject reported discomfort. A feeling of discomfort always precedes tissue damage. Therefore, the time of the onset of discomfort can be used as an estimate of the STT with a certain safety margin.

**Q.** For `O=C(O)CC(O)(CC(=O)O)C(=O)O` [citric acid], which “thickness of porous layer of enamel formed” value [1] is on record?
**A.** approximately 50 μm

**Q.** And the “effectiveness among edible acids (lactic, malic, tartaric, oxalic acid)” value [2]?
**A.** most effective

**Q.** What about the “safe treatment time (STT)” value ([3]; 50° C., pH of 1.5) of the same molecule?
**A.** greater than 8 minutes

**Q.** What about the “damage to soft tissues” value ([3]; high concentrations and high temperatures (up to 90° C.)) of the same molecule?
**A.** did not cause damage to soft tissues

**Q.** What about the “effect of discomfort on gingival tissue” value ([3]; pH=1.5, T +20 °C, t 1 min) of the same molecule?
**A.** −

**Q.** What about the “effect of discomfort on gingival tissue” value ([3]; pH=1.5, T +20 °C, t 2 min) of the same molecule?
**A.** −

**Q.** And the “effect of discomfort on gingival tissue” value ([3]; pH=1.5, T +20 °C, t 3 min)?
**A.** −

**Q.** What about the “effect of discomfort on gingival tissue” value ([3]; pH=1.5, T +20 °C, t 4 min) of the same molecule?
**A.** −

**Q.** And the “effect of discomfort on gingival tissue” value ([3]; pH=1.5, T +20 °C, t 5 min)?
**A.** −

**Q.** What about the “effect of discomfort on gingival tissue” value ([3]; pH=1.5, T +20 °C, t 6 min) of the same molecule?
**A.** −

**Q.** What about the “effect of discomfort on gingival tissue” value ([3]; pH=1.5, T +20 °C, t 7 min) of the same molecule?
**A.** −

**Q.** What about the “effect of discomfort on gingival tissue” value ([3]; pH=1.5, T +20 °C, t 8 min) of the same molecule?
**A.** −

**Q.** What about the “effect of discomfort on gingival tissue” value ([3]; pH=1.5, T +20 °C, t 9 min) of the same molecule?
**A.** −

**Q.** What about the “effect of discomfort on gingival tissue” value ([3]; pH=1.5, T +20 °C, t 10 min) of the same molecule?
**A.** −

**Q.** What about the “effect of discomfort on gingival tissue” value ([3]; pH=1.5, T +20 °C, t 11 min) of the same molecule?
**A.** −

**Q.** And the “effect of discomfort on gingival tissue” value ([3]; pH=1.5, T +20 °C, t 12 min)?
**A.** +

**Q.** And the “effect of discomfort on gingival tissue” value ([3]; pH=1.5, T +36 °C, t 1 min)?
**A.** −

**Q.** What about the “effect of discomfort on gingival tissue” value ([3]; pH=1.5, T +36 °C, t 2 min) of the same molecule?
**A.** −

**Q.** What about the “effect of discomfort on gingival tissue” value ([3]; pH=1.5, T +36 °C, t 3 min) of the same molecule?
**A.** −

**Q.** And the “effect of discomfort on gingival tissue” value ([3]; pH=1.5, T +36 °C, t 4 min)?
**A.** −

**Q.** And the “effect of discomfort on gingival tissue” value ([3]; pH=1.5, T +36 °C, t 5 min)?
**A.** −

**Q.** And the “effect of discomfort on gingival tissue” value ([3]; pH=1.5, T +36 °C, t 6 min)?
**A.** −

**Q.** And the “effect of discomfort on gingival tissue” value ([3]; pH=1.5, T +36 °C, t 7 min)?
**A.** −

**Q.** What about the “effect of discomfort on gingival tissue” value ([3]; pH=1.5, T +36 °C, t 8 min) of the same molecule?
**A.** −

**Q.** What about the “effect of discomfort on gingival tissue” value ([3]; pH=1.5, T +36 °C, t 9 min) of the same molecule?
**A.** −

**Q.** What about the “effect of discomfort on gingival tissue” value ([3]; pH=1.5, T +36 °C, t 10 min) of the same molecule?
**A.** +

**Q.** And the “effect of discomfort on gingival tissue” value ([3]; pH=1.5, T +50 °C, t 1 min)?
**A.** −

**Q.** And the “effect of discomfort on gingival tissue” value ([3]; pH=1.5, T +50 °C, t 2 min)?
**A.** −

**Q.** What about the “effect of discomfort on gingival tissue” value ([3]; pH=1.5, T +50 °C, t 3 min) of the same molecule?
**A.** −

**Q.** And the “effect of discomfort on gingival tissue” value ([3]; pH=1.5, T +50 °C, t 4 min)?
**A.** −

**Q.** What about the “effect of discomfort on gingival tissue” value ([3]; pH=1.5, T +50 °C, t 5 min) of the same molecule?
**A.** −

**Q.** What about the “effect of discomfort on gingival tissue” value ([3]; pH=1.5, T +50 °C, t 6 min) of the same molecule?
**A.** −

**Q.** What about the “effect of discomfort on gingival tissue” value ([3]; pH=1.5, T +50 °C, t 7 min) of the same molecule?
**A.** −

**Q.** And the “effect of discomfort on gingival tissue” value ([3]; pH=1.5, T +50 °C, t 8 min)?
**A.** +

**Q.** And the “effect of discomfort on gingival tissue” value ([3]; pH=1.5, T +70 °C, t 1 min)?
**A.** −

**Q.** What about the “effect of discomfort on gingival tissue” value ([3]; pH=1.5, T +70 °C, t 2 min) of the same molecule?
**A.** −

**Q.** And the “effect of discomfort on gingival tissue” value ([3]; pH=1.5, T +70 °C, t 3 min)?
**A.** −

**Q.** And the “effect of discomfort on gingival tissue” value ([3]; pH=1.5, T +70 °C, t 4 min)?
**A.** −

**Q.** And the “effect of discomfort on gingival tissue” value ([3]; pH=1.5, T +70 °C, t 5 min)?
**A.** −

**Q.** What about the “effect of discomfort on gingival tissue” value ([3]; pH=1.5, T +70 °C, t 6 min) of the same molecule?
**A.** +

**Q.** And the “effect of discomfort on gingival tissue” value ([3]; pH=1.5, T +90 °C, t 1 min)?
**A.** −

**Q.** What about the “effect of discomfort on gingival tissue” value ([3]; pH=1.5, T +90 °C, t 2 min) of the same molecule?
**A.** −

**Q.** What about the “effect of discomfort on gingival tissue” value ([3]; pH=1.5, T +90 °C, t 3 min) of the same molecule?
**A.** +
